{
  "source": "patent US20030053995A1",
  "about": "(priority 2001, published 2003)",
  "key": {"[1]": {"settings": "cited from earlier work; for dose excreted/detected intact in the urine: in vivo; for half-life of disappearance from plasma: after intravenous injection, after distribution; for binding to plasma proteins: result in words"}, "[2]": {"settings": "cited from earlier work"}, "[3]": {"system": "ATRS (AT-rich consensus sequence) luciferase reporter with TK minimal promoter", "assay": "EGF activation of ATRS luciferase reporter", "assay_type": "cell-based", "description": "(FIG. 6A) A431, (FIG. 6B) MDA-MB-468, (FIG. 6C) HBL 100, and (FIG. 6D) CHO cells.\nNext, four repeats of either the ATRS sites or the mutated sites were constructed in a luciferase reporter construct containing the mouse thymidine kinase gene (TK) minimal promoter. […] EGFR-dependent activation, however, could be restored in these two cell lines upon the cotransfection of the EGFR expression vector. Thus, the ATRS, which can bind to nuclear EGFR complex, responds to EGFR-dependent activation, whereas the mutant ATRS, which fails to bind to nuclear EGFR, loses it ability to respond to the EGFR-dependent activation.\nPlasmids and transfection. The cytoplasmic domain (645-1186), tyrosine kinase domain (645-1011), and C-terminal proline rich region (1011-1086) of human EGFR were amplified by PCR and subcloned in frame into pSG424 to generate for each domain a fusion protein containing GAL4 DNA binding proteins. The fusion protein constructs were then transfected into a variety of cell lines along with GAL4CAT or GAL4Luc reporter plasmids via liposomal DC-Cole provide by Dr. Leaf Huang at University of Pittsburgh."}, "[4]": {"system": "Cyclin D1 promoter (Cyclin D1-luc) in MDA-MB-468 cells", "assay": "EGF activation of Cyclin D1 promoter luciferase reporter", "assay_type": "cell-based", "settings": "EGF 100 ng/ml", "description": "In FIG. 7A, MDA-MB-468 cells were transfected with a luciferase vector containing the cyclin D1 promoter with two intact ATRS or the same promoter with the ATRS mutated. […] After precipitation with the EGFR antibodies (1 Santa Cruz, 2 NeoMarkers) or normal rabbit IgG, cyclin D1 promoter region was amplified by PCR. Input nuclear DNA (In) or water (dw) were used as PCR controls.\nTargets for nuclear EGFR were identified. Since nuclear EGFR correlated with highly proliferative activity of cells, it was suspected that its target genes were likely involved in cell proliferation. One of the candidates, Cyclin D1, is a cell-cycle regulator essential for G1 phase progression. […] Two ATRS sequences are located in the proximal region of Cyclin D1 promoter between nucleotide −74 to −70 (TTTAT; SEQ ID NO:3) and −31 to −27 (TTTGT; SEQ ID NO:4), respectively. To test whether these two ATRS in Cyclin D1 promoter were responsive to EGFR activity, the reporter gene containing 163 bp of the Cyclin Dl promoter (Cyclin D1-luc) was tested. Many known transcription factor-binding sites had been eliminated from this construct but it still contained two ATRS described above."}, "[5]": {"settings": "EGFR-overexpressing cell lines A431 and MDA-MB-468, EGF 100 ng/ml"}},
  "note": "Read-outs that look alike come from different tables or passages of the source. Starred links: 1 amine or outer side, 2 acyl side, 3 side chain; linkers in the order of their positions; H or OH if unused. Positions of bridges follow the written chain, without caps; N, C: chain ends. Non-standard residues stand in square brackets, D forms with d. Residues, ends and D or L forms follow the SMILES beside them. Chains are numbered I, II in the order given. Actinocin(9to1) = Cc1c2oc3c(C)ccc(C(=O)[*:1])c3nc-2c(C(=O)[*:2])c(N)c1=O; NMeV = CN[C@H](C(=O)O)C(C)C; Sar = CNCC(=O)O",
  "data": [
    {"compound": "Cc1c2oc3c(C)ccc(C(=O)N[C@@H]4C(=O)N[C@H](C(C)C)C(=O)N5CCC[C@H]5C(=O)N(C)CC(=O)N(C)[C@@H](C(C)C)C(=O)O[C@@H]4C)c3nc-2c(C(=O)N[C@@H]2C(=O)N[C@H](C(C)C)C(=O)N3CCC[C@H]3C(=O)N(C)CC(=O)N(C)[C@@H](C(C)C)C(=O)O[C@@H]2C)c(N)c1=O", "note": "[Actinomycin D] (I: T[dV]P[Sar][NMeV] / II: T[dV]P[Sar][NMeV]; ester I:1-I:C, II:1-II:C; linker I:N-II:N via Actinocin(9to1))", "values": [
      {"measurement": "dose excreted/detected intact in the urine", "setting": "[1]", "value": 10, "unit": "%"}
    ]},
    {"compound": "O=NN(CCCl)C(=O)NCCCl", "note": "[Carmustine, 1,3bis (2-chloroethyl)-1-nitrosourea]", "values": [
      {"measurement": "solubility in organic solvents / alcohol and lipids", "setting": "[2]; result in words", "value": "highly soluble in alcohol and lipids"}
    ]},
    {"compound": "O=NN(CCCl)C(=O)NC1CCCCC1", "note": "[Lomustine, 1-(2-chloro-ethyl)-3-cyclohexyl-1 nitrosourea]", "values": [
      {"measurement": "tissue levels relative to plasma levels", "setting": "[1]; 15 minutes after intravenous administration", "value": "comparable to plasma levels"},
      {"measurement": "solubility", "setting": "[2]; 10% ethanol", "value": 0.05, "unit": "mg per mL"},
      {"measurement": "solubility", "setting": "[2]; absolute alcohol", "value": 70, "unit": "mg per mL"},
      {"measurement": "solubility", "setting": "[2]; water", "value": "< 0.05", "unit": "mg per mL"}
    ]},
    {"compound": "CC[C@]1(O)C[C@@H]2CN(CCc3c([nH]c4ccccc34)[C@@](C(=O)OC)(c3cc4c(cc3OC)N(C)[C@H]3[C@@](O)(C(=O)OC)[C@H](OC(C)=O)[C@]5(CC)C=CCN6CC[C@]43[C@@H]65)C2)C1", "note": "[Vinblastine]", "values": [
      {"measurement": "half-life of disappearance from plasma", "setting": "[1]; first of two half-lives", "value": "approximately 1 hours"},
      {"measurement": "half-life of disappearance from plasma", "setting": "[1]; second of two half-lives", "value": "~20", "unit": "h"},
      {"measurement": "dose excreted/detected intact in the urine", "setting": "[1]", "value": "Approximately 15%"},
      {"measurement": "binding to plasma proteins", "setting": "[1]", "value": "bind to plasma proteins"}
    ]},
    {"compound": "CC[C@]1(O)C[C@H]2CN(CCc3c([nH]c4ccccc34)[C@@](C(=O)OC)(c3cc4c(cc3OC)N(C=O)[C@H]3[C@@](O)(C(=O)OC)[C@H](OC(C)=O)[C@]5(CC)C=CCN6CC[C@]43[C@@H]65)C2)C1", "note": "[Vincristine]", "values": [
      {"measurement": "binding to plasma proteins", "setting": "[1]", "value": "bind to plasma proteins"}
    ]},
    {"compound": "EGF: epidermal growth factor, ligand for EGFR", "values": [
      {"measurement": "activation of mutant ATRS reporter construct", "setting": "[3]; [5]", "value": "only weakly activate"},
      {"measurement": "activation of wild-type ATRS reporter construct", "setting": "[3]; [5]", "value": "strongly activate"},
      {"measurement": "activation of wild type or mutant ATRS reporter", "setting": "[3]; cells with low (HBL100) or no EGFR (CHO), EGF 100 ng/ml", "value": "neither wild type nor the mutant reporter could be activated"},
      {"measurement": "activation of Cyclin D1-luc(m) reporter with both ATRS mutated", "setting": "[4]", "value": "abolished"},
      {"measurement": "activation of wild-type Cyclin D1-luc reporter", "setting": "[4]", "value": "up to four fold"}
    ]}
  ]
}
